US10287301B2 (Achillion Pharmaceuticals, Inc., priority 2015, dated 2019)

These compounds were tested against Human Factor D (Homo sapiens (Human), UniProt P00746) (assay: Human Factor D Assay). Conditions: not given.
Format: biochemical
Summary of the method: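 Thioester cleavage assay: human Factor D (serum-derived, 80 nM final), substrate Z-L-Lys-SBzl with DTNB, both 100 μM final, after 5 min compound preincubation at room temperature.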

Sequence of Human Factor D (P00746 26-253): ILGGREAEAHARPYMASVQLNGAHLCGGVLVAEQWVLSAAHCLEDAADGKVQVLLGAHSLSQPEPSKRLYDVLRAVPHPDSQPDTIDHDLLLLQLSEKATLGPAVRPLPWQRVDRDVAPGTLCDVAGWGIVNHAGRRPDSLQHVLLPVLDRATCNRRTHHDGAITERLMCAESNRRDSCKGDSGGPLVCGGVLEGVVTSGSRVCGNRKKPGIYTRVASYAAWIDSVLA

| SMILES | IC50 [µM] |
| --- | --- |
| CC(=O)c1nn(CC(=O)N2CCC[C@H]2C(=O)Nc2cccc(C)n2)c2ccc(-c3ccc4c(c3)CCC4)cc12 [Compound 572, (S)-1-(2-(3-Acetyl-5-(2,3-dihydro-1H-inden-5-yl)-1H-indazol-1-yl)acetyl)-N-(6-methylpyridin-2-yl)pyrrolidine-2-carboxamide] | 1 to 10 |

Same assay, conditions: Human Factor D, Table 3; read-out: IC50

| SMILES | IC50 [µM] |
| --- | --- |
| CC(=O)c1nn(CC(=O)N2C[C@H](F)C[C@H]2C(=O)Nc2ccn(CC(F)(F)F)n2)c2ccc(-c3cnc(N)nc3)cc12 [Compound 558, (2S,4R)-1-(2-(3-Acetyl-5-(2-aminopyrimidin-5-yl)-1H-indazol-1-yl)acetyl)-4-fluoro-N-(1-(S2,2,2-trifluoroethyl)-1H-pyrazol-3-yl)pyrrolidine-2-carboxamide] | < 1 |
| CC(=O)c1nn(CC(=O)N2C[C@H](F)C[C@H]2C(=O)Nc2cccc(C(F)(F)F)n2)c2ccc(-c3cnc(N)nc3)cc12 [Compound 560, (2S,4R)-1-(2-(3-Acetyl-5-(2-aminopyrimidin-5-yl)-1H-indazol-1-yl)acetyl)-4-fluoro-N-(6-(trifluoromethyl)pyridin-2-yl)pyrrolidine-2-carboxamide] | < 1 |
| CC(=O)c1nn(CC(=O)N2C[C@H](F)C[C@H]2C(=O)Nc2cccc(C(F)(F)F)n2)c2ccc(-c3cnc(C)nc3)cc12 [Compound 562, (2S,4R)-1-(2-(3-Acetyl-5-(2-methylpyrimidin-5-yl)-1H-indazol-1-yl)acetyl)-4-fluoro-N-(6-(trifluoromethyl)pyridin-2-yl)pyrrolidine-2-carboxamide] | < 1 |
| CC(=O)c1nn(CC(=O)N2C[C@H](F)C[C@H]2C(=O)Nc2cccc(OC(F)(F)F)c2F)c2ccc(-c3cnc(N)nc3)cc12 [Compound 563, (2S,4R)-1-(2-(3-Acetyl-5-(2-aminopyrimidin-5-yl)-1H-indazol-1-yl)acetyl)-4-fluoro-N-(2-fluoro-3-(trifluoromethoxy)phenyl)pyrrolidine-2-carboxamide] | < 1 |
| CCc1ncc(-c2ccc3c(c2)c(C(C)=O)nn3CC(=O)N2C[C@H](F)C[C@H]2C(=O)Nc2cccc(Br)n2)cn1 [Compound 566, (2S,4R)-1-(2-(3-Acetyl-5-(2-ethylpyrimidin-5-yl)-1H-indazol-1-yl)acetyl)-N-(6-bromopyridin-2-yl)-4-fluoropyrrolidine-2-carboxamide] | < 1 |
| CC(=O)c1nn(CC(=O)N2C[C@H](F)C[C@H]2C(=O)Nc2cccc(Br)n2)c2ccc(-c3cnc(C(C)C)nc3)cc12 [Compound 567, (2S,4R)-1-(2-(3-Acetyl-5-(2-isopropylpyrimidin-5-yl)-1H-indazol-1-yl)acetyl)-N-(6-bromopyridin-2-yl)-4-fluoropyrrolidine-2-carboxamide] | < 1 |
| CC(=O)c1nn(CC(=O)N2C[C@H](F)C[C@H]2C(=O)NC[C@@H]2CCN(C)C2)c2ccc(-c3cnc(C)nc3)cc12 [Compound 568, (2S,4R)-1-(2-(3-Acetyl-5-(2-methylpyrimidin-5-yl)-1H-indazol-1-yl)acetyl)-4-fluoro-N—(((S)-1-methylpyrrolidin-3-yl)methyl)pyrrolidine-2-carboxamide] | > 10 |
| CC(=O)c1nn(CC(=O)N2C[C@H](F)C[C@H]2C(=O)NC[C@H]2CCN(C)C2)c2ccc(-c3cnc(C)nc3)cc12 [Compound 569, (2S,4R)-1-(2-(3-acetyl-5-(2-methylpyrimidin-5-yl)-1H-indazol-1-yl)acetyl)-4-fluoro-N—(((R)-1-methylpyrrolidin-3-yl)methyl)pyrrolidine-2-carboxamide] | > 10 |
| CC(=O)c1nn(CC(=O)N2CC[C@H]2C(=O)Nc2cccc(C)n2)c2ccc(-c3ccc4c(c3)CCC4)cc12 [Compound 573, (S)-1-(2-(3-Acetyl-5-(2,3-dihydro-1H-inden-5-yl)-1H-indazol-1-yl)acetyl)-N-(6-methylpyridin-2-yl)azetidine-2-carboxamide] | > 10 |
| CC(=O)c1nn(CC(=O)N2[C@@H]3C[C@@H]3C[C@H]2C(=O)Nc2nc(Br)ccc2CO)c2ccc(-c3cnc(C)nc3)cc12 [Compound 574, (1R,3S,5R)-2-(2-(3-acetyl-5-(2-methylpyrimidin-5-yl)-1H-indazol-1-yl)acetyl)-N-(6-bromo-3-(hydroxymethyl)pyridin-2-yl)-2-azabicyclo[3.1.0] hexane-3-carboxamide] | < 1 |
| CC(=O)c1nn(CC(=O)N2[C@@H]3C[C@@H]3C[C@H]2C(=O)NC/C(F)=C\c2ccccc2)c2ccc(-c3cnc(C)nc3)cc12 [Compound 575, (1R,3S,5R)-2-(2-(3-Acetyl-5-(2-methylpyrimidin-5-yl)-1H-indazol-1-yl)acetyl)-N-((E)-2-fluoro-3-phenylallyl)-2-azabicyclo[3.1.0]hexane-3-carboxamide] | < 1 |
| CC(=O)c1nn(CC(=O)N2C[C@H](F)C[C@H]2C(=O)Nc2cccc(C3CC3)n2)c2ccc(-c3cnc(C)nc3)cc12 [Compound 576, (2S,4R)-1-(2-(3-Acetyl-5-(2-methylpyrimidin-5-yl)-1H-indazol-1-yl)acetyl)-N-(6-cyclopropylpyridin-2-yl)-4-fluoropyrrolidine-2-carboxamide] | < 1 |
| COc1cccc(NC(=O)[C@@H]2C[C@@H](F)CN2C(=O)Cn2nc(C(C)=O)c3cc(-c4cnc(C)nc4)ccc32)n1 [Compound 580, (2S,4R)-1-(2-(3-Acetyl-5-(2-methylpyrimidin-5-yl)-1H-indazol-1-yl)acetyl)-4-fluoro-N-(6-methoxypyridin-2-yl)pyrrolidine-2-carboxamide] | < 1 |
| CC(=O)c1nn(CC(=O)N2C[C@H](F)C[C@H]2C(=O)Nc2cncc(C(F)(F)F)n2)c2ccc(-c3cnc(C)nc3)cc12 [Compound 581, (2S,4R)-1-(2-(3-Acetyl-5-(2-methylpyrimidin-5-yl)-1H-indazol-1-yl)acetyl)-4-fluoro-N-(6-(trifluoromethyl)pyrazin-2-yl)pyrrolidine-2-carboxamide] | < 1 |
| CC(=O)c1nn(CC(=O)N2C[C@H](F)C[C@H]2C(=O)Nc2cccc(OC(F)F)n2)c2ccc(-c3cnc(C)nc3)cc12 [Compound 582, (2S,4R)-1-(2-(3-Acetyl-5-(2-methylpyrimidin-5-yl)-1H-indazol-1-yl)acetyl)-N-(6-(difluoromethoxy)pyridin-2-yl)-4-fluoropyrrolidine-2-carboxamide] | < 1 |
| CC(=O)c1nn(CC(=O)N2C[C@H](F)C[C@H]2C(=O)Nc2cccc(Br)n2)c2ccc(-c3cnc(F)nc3)cc12 [Compound 583, (2S,4R)-1-(2-(3-Acetyl-5-(2-fluoropyrimidin-5-yl)-1H-indazol-1-yl)acetyl)-N-(6-bromopyridin-2-yl)-4-fluoropyrrolidine-2-carboxamide] | < 1 |
| CC(=O)c1cccc(NC(=O)[C@@H]2C[C@@H](F)CN2C(=O)Cn2nc(C(C)=O)c3cc(-c4cnc(C)nc4)ccc32)n1 [Compound 584, (2S,4R)-1-(2-(3-Acetyl-5-(2-methylpyrimidin-5-yl)-1H-indazol-1-yl)acetyl)-N-(6-acetylpyridin-2-yl)-4-fluoropyrrolidine-2-carboxamide] | < 1 |
| CC(=O)c1nn(CC(=O)N2CCC[C@H]2C(=O)Nc2cccc(C)n2)c2ccc(-c3ccc4ccccc4c3)cc12 [Compound 585, (S)-1-(2-(3-Acetyl-5-(naphthalen-2-yl)-1H-indazol-1-yl)acetyl)-N-(6-methylpyridin-2-yl)pyrrolidine-2-carboxamide] | > 10 |
| CC(=O)c1nn(CC(=O)N2CC[C@H]2C(=O)Nc2cccc(C)n2)c2ccc(-c3ccc4ccccc4c3)cc12 [Compound 587, (S)-1-(2-(3-Acetyl-5-(naphthalen-2-yl)-1H-indazol-1-yl)acetyl)-N-(6-methylpyridin-2-yl)azetidine-2-carboxamide] | > 10 |
| CC(=O)c1nn(CC(=O)N2CC[C@H]2C(=O)Nc2cccc(C)n2)c2ccc(-c3ccc(C)nc3)cc12 [Compound 588, (S)-1-(2-(3-Acetyl-5-(6-methylpyridin-3-yl)-1H-indazol-1-yl)acetyl)-N-(6-methylpyridin-2-yl)azetidine-2-carboxamide] | > 10 |
| CC(=O)c1nn(CC(=O)N2CCC[C@H]2C(=O)Nc2cccc(C)n2)c2ccc(-c3ccc4cccnc4c3)cc12 [Compound 589, (S)-1-(2-(3-Acetyl-5-(quinolin-7-yl)-1H-indazol-1-yl)acetyl)-N-(6-methylpyridin-2-yl)pyrrolidine-2-carboxamide] | < 1 |
| CC(=O)c1nn(CC(=O)N2C[C@H](F)C[C@H]2C(=O)Nc2cccc(Br)n2)c2ccc(-c3cnc(OC4CS(=O)(=O)C4)nc3)cc12 [Compound 591, (2S,4R)-1-(2-(3-Acetyl-5-(2-((1,1-dioxidothietan-3-yl)oxy)pyrimidin-5-yl)-1H-indazol-1-yl)acetyl)-N-(6-bromopyridin-2-yl)-4-fluoropyrrolidine-2-carboxamide] | < 1 |
| CC(=O)c1nn(CC(=O)N2CCCC[C@@H]2C(=O)Nc2cccc(Br)n2)c2ccc(-c3cnc(C)nc3)cc12 [Compound 592, (R)-1-(2-(3-acetyl-5-(2-methylpyrimidin-5-yl)-1H-indazol-1-yl)acetyl)-N-(6-bromopyridin-2-yl)piperidine-2-carboxamide] | > 10 |
| CC(=O)c1nn(CC(=O)N2CCCC[C@H]2C(=O)Nc2cccc(Br)n2)c2ccc(-c3cnc(C)nc3)cc12 [Compound 593, (S)-1-(2-(3-Acetyl-5-(2-methylpyrimidin-5-yl)-1H-indazol-1-yl)acetyl)-N-(6-bromopyridin-2-yl)piperidine-2-carboxamide] | < 1 |
| CC(=O)c1cn(CCN2C[C@H](F)C[C@H]2C(=O)Nc2cccc(OC(F)(F)F)c2F)c2ccc(-c3cnc(C)nc3)cc12 [Compound 594, (2S,4R)-1-(2-(3-Acetyl-5-(2-methylpyrimidin-5-yl)-1H-indol-1-yl)ethyl)-4-fluoro-N-(2-fluoro-3-(trifluoromethoxy)phenyl)pyrrolidine-2-carboxamide] | > 10 |
| COC(=O)c1ncc(-c2ccc3c(c2)c(C(C)=O)nn3CC(=O)N2C[C@H](F)C[C@H]2C(=O)Nc2cccc(Br)n2)cn1 [Compound 596, methyl 5-(3-Acetyl-1-(2-((2S,4R)-2-((6-bromopyridin-2-yl)carbamoyl)-4-fluoropyrrolidin-1-yl)-2-oxoethyl)-1H-indazol-5-yl)pyrimidine-2-carboxylate] | < 1 |
